In patent US8471005B2 (Cephalon, Inc., priority 2008, dated 2013):
Read-outs that look alike come from different tables or passages of the source.

How the values were obtained:
JAK2 = target: T1, JAK2 (Homo sapiens, UniProt O60674); experiment: Recombinant Human JAK2 Kinase Assay (TRF); type: biochemical; conditions: read-out: JAK2 Potency
T1 construct: host or cells: baculovirus expression system
In short: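 TRF read-out: Eu-N1 PY100 anti-phosphotyrosine antibody detects product. Enzyme is baculovirus-expressed JAK2 at 15 ng/ml; substrate is a biotinyl 15-mer peptide bound to Neutravidin-coated wells. Buffer 20 mM HEPES pH 7.2, 0.2 μM ATP, 1 mM MnCl2, 0.1% BSA, 2.5% DMSO final; 20 min, RT.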

ALK = target: T2, ALK (Homo sapiens, UniProt Q9UM73); experiment: ALK Kinase Assay (ELISA/TRF, PLC-γ substrate); type: biochemical; conditions: read-out: ALK Potency
T2 construct: host or cells: baculovirus expression system
T2 sequence (Q9UM73 19-1620): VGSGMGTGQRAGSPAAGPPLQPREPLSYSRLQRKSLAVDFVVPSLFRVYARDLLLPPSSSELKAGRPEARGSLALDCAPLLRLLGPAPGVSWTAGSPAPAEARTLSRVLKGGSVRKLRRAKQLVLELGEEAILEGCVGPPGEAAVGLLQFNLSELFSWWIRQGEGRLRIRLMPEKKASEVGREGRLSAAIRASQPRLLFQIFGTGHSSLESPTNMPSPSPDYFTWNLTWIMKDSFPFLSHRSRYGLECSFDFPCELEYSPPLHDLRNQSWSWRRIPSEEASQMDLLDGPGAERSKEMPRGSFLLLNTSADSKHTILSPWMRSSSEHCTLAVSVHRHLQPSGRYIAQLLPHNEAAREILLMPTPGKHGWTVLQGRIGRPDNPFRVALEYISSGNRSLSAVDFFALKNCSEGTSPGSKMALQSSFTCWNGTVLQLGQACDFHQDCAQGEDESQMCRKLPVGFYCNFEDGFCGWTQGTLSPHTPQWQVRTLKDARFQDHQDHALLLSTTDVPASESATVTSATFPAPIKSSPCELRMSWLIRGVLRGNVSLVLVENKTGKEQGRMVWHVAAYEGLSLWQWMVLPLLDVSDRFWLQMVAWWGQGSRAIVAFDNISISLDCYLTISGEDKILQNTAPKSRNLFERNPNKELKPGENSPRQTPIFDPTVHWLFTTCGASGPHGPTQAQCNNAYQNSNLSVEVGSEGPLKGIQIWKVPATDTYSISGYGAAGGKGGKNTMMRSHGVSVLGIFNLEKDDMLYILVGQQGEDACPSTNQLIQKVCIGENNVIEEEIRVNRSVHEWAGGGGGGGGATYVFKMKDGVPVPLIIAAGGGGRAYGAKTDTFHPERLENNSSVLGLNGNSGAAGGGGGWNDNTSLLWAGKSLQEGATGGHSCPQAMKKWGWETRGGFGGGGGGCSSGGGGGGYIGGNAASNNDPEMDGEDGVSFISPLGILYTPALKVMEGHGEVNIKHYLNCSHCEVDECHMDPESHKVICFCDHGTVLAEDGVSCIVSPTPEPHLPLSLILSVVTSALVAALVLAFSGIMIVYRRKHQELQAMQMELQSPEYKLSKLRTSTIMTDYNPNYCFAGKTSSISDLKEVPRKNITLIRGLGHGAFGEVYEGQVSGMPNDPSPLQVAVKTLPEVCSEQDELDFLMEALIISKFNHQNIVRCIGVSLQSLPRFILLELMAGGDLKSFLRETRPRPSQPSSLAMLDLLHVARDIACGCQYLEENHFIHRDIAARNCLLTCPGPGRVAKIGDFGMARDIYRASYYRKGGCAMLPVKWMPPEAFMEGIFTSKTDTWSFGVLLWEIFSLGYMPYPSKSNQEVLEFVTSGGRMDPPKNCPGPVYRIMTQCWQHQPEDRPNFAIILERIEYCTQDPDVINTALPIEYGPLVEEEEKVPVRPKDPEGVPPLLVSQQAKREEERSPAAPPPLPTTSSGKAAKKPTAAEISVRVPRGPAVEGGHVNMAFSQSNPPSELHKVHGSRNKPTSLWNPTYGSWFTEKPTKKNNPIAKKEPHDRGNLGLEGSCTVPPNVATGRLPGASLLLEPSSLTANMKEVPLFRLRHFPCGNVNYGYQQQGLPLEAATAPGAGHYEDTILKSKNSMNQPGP
In short: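 Time-resolved fluorescence ELISA using Eu-N1 PT66 antibody to detect phosphorylated PLC-γ (coated at 10 μg/mL). Enzyme at 30 ng/ml ALK; 15 min incubation, 37° C.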

[1] = JAK2 kinase inhibition, 0.2 μM ATP
[2] = ALK kinase inhibition, 1 μM ATP

T1 sequence (O60674 whole entry): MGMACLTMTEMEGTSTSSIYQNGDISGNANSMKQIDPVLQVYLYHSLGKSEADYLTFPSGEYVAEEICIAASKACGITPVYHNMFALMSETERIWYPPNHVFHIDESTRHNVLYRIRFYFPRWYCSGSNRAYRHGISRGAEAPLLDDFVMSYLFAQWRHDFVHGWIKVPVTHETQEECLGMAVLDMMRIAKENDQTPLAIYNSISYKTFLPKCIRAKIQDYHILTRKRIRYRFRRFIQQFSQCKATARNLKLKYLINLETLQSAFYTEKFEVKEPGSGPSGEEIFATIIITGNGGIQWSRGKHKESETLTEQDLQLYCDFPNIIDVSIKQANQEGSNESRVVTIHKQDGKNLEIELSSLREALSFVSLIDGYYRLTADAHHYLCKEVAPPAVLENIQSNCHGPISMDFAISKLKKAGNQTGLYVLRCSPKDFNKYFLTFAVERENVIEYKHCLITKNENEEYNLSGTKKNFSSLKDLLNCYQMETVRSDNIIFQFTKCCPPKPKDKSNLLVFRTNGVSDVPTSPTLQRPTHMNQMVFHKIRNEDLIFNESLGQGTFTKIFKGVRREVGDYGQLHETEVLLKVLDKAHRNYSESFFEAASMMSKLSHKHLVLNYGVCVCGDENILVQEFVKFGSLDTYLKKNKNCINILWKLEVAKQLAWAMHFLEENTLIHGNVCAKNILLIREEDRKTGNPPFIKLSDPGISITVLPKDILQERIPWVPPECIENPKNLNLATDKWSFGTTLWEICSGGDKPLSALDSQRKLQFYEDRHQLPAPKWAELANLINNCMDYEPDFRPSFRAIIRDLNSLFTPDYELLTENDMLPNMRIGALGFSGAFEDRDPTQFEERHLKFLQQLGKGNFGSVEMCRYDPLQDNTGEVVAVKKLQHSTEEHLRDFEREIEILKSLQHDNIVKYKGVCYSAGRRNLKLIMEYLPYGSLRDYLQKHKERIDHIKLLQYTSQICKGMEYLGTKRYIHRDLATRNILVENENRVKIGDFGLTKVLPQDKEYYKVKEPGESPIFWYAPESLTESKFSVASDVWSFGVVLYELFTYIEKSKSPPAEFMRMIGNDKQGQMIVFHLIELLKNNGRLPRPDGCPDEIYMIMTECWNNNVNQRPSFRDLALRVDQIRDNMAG

Compound	IC50 (JAK2; JAK2 Kinase Inhibition) [µM]	IC50 (ALK; ALK Kinase Inhibition) [µM]	IC50 (JAK2; [1]) [µM]	IC50 (ALK; [2]) [µM]
CC1(C)C(=O)Nc2ccc(Nc3ncc4ccc(-c5ccccc5N5CCCS5(=O)=O)n4n3)cc21 [Example 1556, 5-({7-[2-(1,1-Dioxido-1,2-thiazolidin-2-yl)phenyl]pyrrolo[2,1-f][1,2,4]triazin-2-yl}amino)-3,3-dimethyl-1,3-dihydro-2H-indol-2-one]	< 0.1	< 0.1		
COC(=O)c1cccc(-c2ccc3cnc(Nc4ccc(N5CCOCC5)cc4)nn23)c1 [Example 6, 3-[2-(4-Morpholin-4-yl-phenylamino)-pyrrolo[2,1-f][1,2,4]triazin-7-yl]-benzoic acid methyl ester]	< 0.1	> 10		
Clc1cccc(-c2ccc3cnc(Nc4ccc(N5CCC(N6CCOCC6)CC5)cc4)nn23)c1 [Example 336, [7-(3-Chloro-phenyl)-pyrrolo[2,1-f][1,2,4]triazin-2-yl]-[4-(4-morpholin-4-yl-piperidin-1-yl)-phenyl]-amine]	< 0.1	0.1 to 1		
COc1ccc(-c2ccc3cnc(Nc4cccc(C5CNCCN5)c4)nn23)cn1 (centres unmarked) [Example 1566, [7-(6-Methoxy-pyridin-3-yl)-pyrrolo[2,1-f][1,2,4]triazin-2-yl]-(3-piperazin-2-yl-phenyl)-amine]	< 0.1	1 to 10		
CN1CCN(c2ccc(Nc3ncc4ccc(-c5cnccc5NS(C)(=O)=O)n4n3)cc2)CC1 [Example 1218, N-(3-{2-[4-(4-Methyl-piperazin-1-yl)-phenylamino]-pyrrolo[2,1-f][1,2,4]triazin-7-yl}-pyridin-4-yl)-methanesulfonamide]			0.1 to 1	1 to 10
COc1ccc(C(=O)N2CCN(C)CC2)cc1Nc1ncc2ccc(-c3ccccc3OC)n2n1 [Example 494, {4-Methoxy-3-[7-(2-methoxy-phenyl)-pyrrolo[2,1-f][1,2,4]triazin-2-ylamino]-phenyl}-(4-methyl-piperazin-1-yl)-methanone]			> 10	1 to 10
COc1ccc(-c2ccc3cnc(Nc4ccc(C5CCN(CC(N)=O)CC5)cc4OC)nn23)c(N(C)S(C)(=O)=O)c1 [Example 1273, 2-[4-(4-{7-[2-(Methanesulfonyl-methyl-amino)-4-methoxy-phenyl]-pyrrolo[2,1-f][1,2,4]triazin-2-ylamino}-3-methoxy-phenyl)-piperidin-1-yl]-acetamide]			1 to 10	< 0.1
COc1ccccc1-c1ccc2cnc(Nc3ccc(C4CCN(C(=O)N5CCN(C)CC5)CC4)cc3)nn12 [Example 501, (4-{4-[7-(2-Methoxy-phenyl)-pyrrolo[2,1-f][1,2,4]triazin-2-ylamino]-phenyl}-piperidin-1-yl)-(4-methyl-piperazin-1-yl)-methanone]			< 0.1	< 0.1
Fc1cc(N2CCOCC2)ccc1Nc1ncc2ccc(-c3cccnc3)n2n1 [Example 372, (2-Fluoro-4-morpholin-4-yl-phenyl)-(7-pyridin-3-yl-pyrrolo[2,1-f][1,2,4]triazin-2-yl)-amine]	< 0.1	0.1 to 1		
O=S(=O)(c1cccc(-c2ccc3cnc(Nc4ccc(C5CCN(CCO)CC5)cc4)nn23)c1)N1CCCC1 [Example 678, 2-[4-(4-{7-[3-(Pyrrolidine-1-sulfonyl)-phenyl]-pyrrolo[2,1-f][1,2,4]triazin-2-ylamino}-phenyl)-piperidin-1-yl]ethanol]			< 0.1	0.1 to 1
CN1CCN(c2ccc(Nc3ncc4ccc(-c5cncc(CNCCS(C)(=O)=O)c5)n4n3)cc2)CC1 [Example 1198, (7-{5-[(2-Methanesulfonyl-ethylamino)-methyl]-pyridin-3-yl}-pyrrolo[2,1-f][1,2,4]triazin-2-yl)-[4-(4-methyl-piperazin-1-yl)-phenyl]-amine]			< 0.1	1 to 10
CN1CCN(C(=O)c2cccc(Nc3ncc4ccc(-c5cccnc5)n4n3)c2)CC1 [Example 341, (4-Methyl-piperazin-1-yl)-[3-(7-pyridin-3-yl-pyrrolo[2,1-f][1,2,4]triazin-2-ylamino)-phenyl]-methanone]	< 0.1	1 to 10		
CC(=O)Nc1cccc(Nc2ncc3ccc(-c4cccc(S(=O)(=O)N5CC[C@H](O)C5)c4)n3n2)c1 [Example 884, N-(3-{7-[3-((S)-3-Hydroxy-pyrrolidine-1-sulfonyl)-phenyl]-pyrrolo[2,1-f][1,2,4]triazin-2-ylamino}-phenyl)-acetamide]			< 0.1	1 to 10
CCN(CC)C(=O)c1ccccc1-c1ccc2cnc(Nc3ccc(N4CCN(C)CC4)cc3)nn12 [Example 407, N,N-Diethyl-2-{2-[4-(4-methyl-piperazin-1-yl)-phenylamino]-pyrrolo[2,1-f][1,2,4]triazin-7-yl}-benzamide]	< 0.1	0.1 to 1		
COc1cc(C2CCNCC2)ccc1Nc1ncc2ccc(-c3cccc(S(=O)(=O)NC(C)(C)C)c3)n2n1 [Example 691, N-tert-Butyl-3-[2-(2-methoxy-4-piperidin-4-yl-phenylamino)-pyrrolo[2,1-f][1,2,4]triazin-7-yl]-benzenesulfonamide]			0.1 to 1	< 0.1
COc1cc(CCN2CCOCC2)ccc1Nc1ncc2ccc(-c3ccccc3N(C)S(C)(=O)=O)n2n1 [Example 493, N-(2-{2-[2-Methoxy-4-(2-morpholin-4-yl-ethyl)-phenylamino]-pyrrolo[2,1-f][1,2,4]triazin-7-yl}-phenyl)-N-methyl-methanesulfonamide]			0.1 to 1	< 0.1
CCS(=O)(=O)c1cccc(-c2ccc3cnc(Nc4ccc5nc[nH]c5c4)nn23)c1 [Example 1311, (3H-Benzimidazol-5-yl)-[7-(3-ethanesulfonyl-phenyl)-pyrrolo[2,1-f][1,2,4]triazin-2-yl]-amine]			< 0.1	1 to 10
COc1cc(C2CCNCC2)ccc1Nc1ncc2ccc(-c3ccccc3OC)n2n1 [Example 820, [7-(2-Methoxy-phenyl)-pyrrolo[2,1-f][1,2,4]triazin-2-yl]-(2-methoxy-4-piperidin-4-yl-phenyl)-amine]			0.1 to 1	< 0.1
COCCN1CCc2ccc(Nc3ncc4ccc(-c5ccccc5)n4n3)cc2CC1 [Example 9, [3-(2-Methoxy-ethyl)-2,3,4,5-tetrahydro-1H-benzo[d]azepin-7-yl]-(7-phenyl-pyrrolo[2,1-f][1,2,4]triazin-2-yl)-amine]	< 0.1	< 0.1		

Continued, values first:

IC50 (JAK2; JAK2 Kinase Inhibition) [µM]	IC50 (ALK; ALK Kinase Inhibition) [µM]	IC50 (JAK2; [1]) [µM]	IC50 (ALK; [2]) [µM]	Compound
		< 0.1	0.1 to 1	CN(c1ccccc1-c1ccc2cnc(Nc3ccc4c(cnn4C)c3)nn12)S(C)(=O)=O [Example 1339, N-Methyl-N-{2-[2-(1-methyl-1H-indazol-5-ylamino)-pyrrolo[2,1-f][1,2,4]triazin-7-yl]-phenyl}-methanesulfonamide]
		< 0.1	0.1 to 1	CC(C)(C)NS(=O)(=O)c1cccc(-c2ccc3cnc(Nc4cccc(NS(C)(=O)=O)c4)nn23)c1 [Example 889, N-tert-Butyl-3-[2-(3-methanesulfonylamino-phenylamino)-pyrrolo[2,1-f][1,2,4]triazin-7-yl]-benzenesulfonamide]
		< 0.1	< 0.1	CN1CCN(c2ccc(Nc3ncc4ccc(-c5ccccc5OCC#N)n4n3)cc2)CC1 [Example 1141, (2-{2-[4-(4-Methyl-piperazin-1-yl)-phenylamino]-pyrrolo[2,1-f][1,2,4]triazin-7-yl}-phenoxy)-acetonitrile]
		< 0.1	< 0.1	COc1ccc(-c2ccc3cnc(Nc4ccc(C5CCN(CC(N)=O)CC5)c(OC)c4)nn23)cn1 [Example 911, 2-(4-{2-Methoxy-4-[7-(6-methoxy-pyridin-3-yl)-pyrrolo[2,1-f][1,2,4]triazin-2-ylamino]-phenyl}-piperidin-1-yl)-acetamide]
		< 0.1	0.1 to 1	CN1CCN(CCn2cc(Nc3ncc4ccc(-c5cnn(C)c5)n4n3)cn2)CC1 [Example 1213, {1-[2-(4-Methyl-piperazin-1-yl)-ethyl]-1H-pyrazol-4-yl}-[7-(1-methyl-1H-pyrazol-4-yl)-pyrrolo[2,1-f][1,2,4]triazin-2-yl]-amine]
		< 0.1	0.1 to 1	CC(C)(C)NS(=O)(=O)c1cccc(-c2ccc3cnc(Nc4cccc(N)c4)nn23)c1 [Example 896, 3-[2-(3-Amino-phenylamino)-pyrrolo[2,1-f][1,2,4]triazin-7-yl]-N-tert-butyl-benzenesulfonamide]
		< 0.1	> 10	CC(C)(C)NS(=O)(=O)c1cccc(-c2ccc3cnc(Nc4ccc(-c5cccnc5)cc4)nn23)c1 [Example 1085, N-tert-Butyl-3-[2-(4-pyridin-3-yl-phenylamino)-pyrrolo[2,1-f][1,2,4]triazin-7-yl]-benzenesulfonamide]
		< 0.1	< 0.1	CN1CCC(c2ccc(Nc3ncc4ccc(-c5ccccc5N(C)S(C)(=O)=O)n4n3)cc2)CC1 [Example 1178, N-Methyl-N-(2-{2-[4-(1-methyl-piperidin-4-yl)-phenylamino]-pyrrolo[2,1-f][1,2,4]triazin-7-yl}-phenyl)-methanesulfonamide]
		< 0.1	< 0.1	COc1cc2c(cc1Nc1ncc3ccc(-c4cccc5c4OCC5)n3n1)CCNCC2 [Example 709, [7-(2,3-Dihydro-benzofuran-7-yl)-pyrrolo[2,1-f][1,2,4]triazin-2-yl]-(8-methoxy-2,3,4,5-tetrahydro-1H-3-benzazepin-7-yl)-amine]
